Test systems include UO-31 renal; K-562 leukemia; HT29 colon; MOLT-4 leukemia; RPMI-8226 leukemia; COLO 205 colon; OVCAR-4 ovarian; OVCAR-5 ovarian; SF-268 CNS.
Experiment in all cases: inhibition of tumour cell growth, NCI panel, 48 h

The values below come from PubChem BioAssay (NCI).

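Five concentrations, 48 hours, 96-well plates. GI50 = concentration required for 50% inhibition of growth. TGI: concentration producing complete growth inhibition.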 Where a SMILES comes first, the peptide text is derived from it. Bridges are numbered along the chain shown (N, C = ends). [ ]: non-standard residue; d: D form. aThr = C[C@H](O)[C@H](N)C(=O)O Some results are limits rather than exact numbers.

For the compound `COc1ccc(/C=C2\CCC/C(=C\c3ccc(OC)c(OC)c3)C2=O)cc1OC`, the GI50 in the experiment on UO-31 renal is 3.63 µM; with K-562 leukemia, 2.28 µM; in the experiment on HT29 colon it was 1.34 µM; in the experiment on MOLT-4 leukemia, 4.74 µM; with RPMI-8226 leukemia it was 1.15 µM; in the experiment on COLO 205 colon it was 1.46 µM. The results for the GI50 in the experiment on OVCAR-4 ovarian, in the experiment on OVCAR-5 ovarian and in the experiment on SF-268 CNS were 3.28 µM, 25 µM and 4.28 µM, respectively. Also, the TGI in the experiment on UO-31 renal, with K-562 leukemia, with HT29 colon, in the experiment on MOLT-4 leukemia, with RPMI-8226 leukemia and in the experiment on COLO 205 colon was above 32.5 µM throughout. In addition, the TGI in the experiment on OVCAR-4 ovarian, in the experiment with OVCAR-5 ovarian and with SF-268 CNS was above 32.5 µM each time.
On to `O=C1NC(=O)C2C(=O)NC(=O)C1C2Cc1ccco1` (stereo not given), for which the TGI with UO-31 renal, in the experiment with K-562 leukemia, in the experiment on HT29 colon, with MOLT-4 leukemia, in the experiment with RPMI-8226 leukemia and in the experiment on COLO 205 colon was above 100 µM throughout. Besides, the TGI in the experiment with OVCAR-4 ovarian, in the experiment with OVCAR-5 ovarian and in the experiment with SF-268 CNS was above 100 µM throughout.
As to `c1ccc(C(c2ccccc2)c2ccccn2)cc1`, the TGI in the experiment with UO-31 renal, in the experiment on K-562 leukemia, in the experiment on HT29 colon, in the experiment with RPMI-8226 leukemia, in the experiment on COLO 205 colon and in the experiment with OVCAR-4 ovarian was above 100 µM in each case. In addition, the TGI in the experiment on OVCAR-5 ovarian and with SF-268 CNS was above 100 µM each time.
As for `O=C(CCCC(=O)Nc1ccc(Cl)cc1Cl)CC(=O)c1ccc2ccccc2c1`, the TGI in the experiment on UO-31 renal, with K-562 leukemia, with HT29 colon, with MOLT-4 leukemia, in the experiment with COLO 205 colon and in the experiment on OVCAR-4 ovarian was above 100 µM each time. The TGI in the experiment on OVCAR-5 ovarian and with SF-268 CNS was above 100 µM each time.
Consider `Nc1nc(=S)c2c(ncn2CCO)[nH]1`, for which the TGI with UO-31 renal, with K-562 leukemia, in the experiment with HT29 colon, with RPMI-8226 leukemia, with COLO 205 colon and in the experiment on OVCAR-4 ovarian was above 100 µM each time. Moreover, the TGI with OVCAR-5 ovarian and with SF-268 CNS was above 100 µM each time.
Turning to `CC(C)C[C@@H]1NC(=O)[C@@H]2CCCN2C(=O)[C@@H]2CCCN2C(=O)[C@H](CC(C)C)NC(=O)[C@H](CO)NC(=O)[C@H](CCCCN)NC(=O)[C@H]([C@H](C)O)NC(=O)[C@@H]2CSSC[C@@H](NC1=O)C(=O)N[C@@H](Cc1ccccc1)C(=O)N1CCC[C@H]1C(=O)N[C@@H](CC(=O)O)C(=O)NCC(=O)N[C@@H](CCCN=C(N)N)C(=O)N2` (cyclo(C[aThr]KSLPPL[dC]FPDGR); disulfide 1-9), the GI50 in the experiment on UO-31 renal, in the experiment on K-562 leukemia, with HT29 colon, in the experiment on MOLT-4 leukemia, in the experiment with RPMI-8226 leukemia and in the experiment with COLO 205 colon was above 50 µM in each case. Further, the GI50 with OVCAR-4 ovarian, with OVCAR-5 ovarian and in the experiment on SF-268 CNS was above 50 µM in each case. Moreover, the TGI in the experiment on UO-31 renal, with K-562 leukemia, in the experiment with HT29 colon, in the experiment with MOLT-4 leukemia, in the experiment with RPMI-8226 leukemia and with COLO 205 colon was above 50 µM throughout. Also, the TGI in the experiment on OVCAR-4 ovarian, with OVCAR-5 ovarian and in the experiment on SF-268 CNS was above 50 µM throughout.
In the case of `COc1ccccc1Oc1nccc(-c2c(-c3ccc(F)cc3)ncn2C2CCNCC2)n1`, the GI50 in the experiment on UO-31 renal is 6.86 µM; with K-562 leukemia, 8.32 µM; with HT29 colon, 8.72 µM; in the experiment on MOLT-4 leukemia, above 16.3 µM; in the experiment with RPMI-8226 leukemia, above 19.3 µM; in the experiment on COLO 205 colon, 7.37 µM. For the same compound, the GI50 in the experiment on OVCAR-4 ovarian, in the experiment with OVCAR-5 ovarian and with SF-268 CNS was above 25 µM throughout. In addition, the TGI in the experiment on UO-31 renal was above 25 µM; with K-562 leukemia it was above 25 µM; in the experiment on HT29 colon, above 25 µM; in the experiment with MOLT-4 leukemia, above 25 µM; in the experiment with RPMI-8226 leukemia, above 25 µM; with COLO 205 colon it was above 19.9 µM. Moreover, the TGI with OVCAR-4 ovarian, in the experiment with OVCAR-5 ovarian and in the experiment on SF-268 CNS was above 25 µM throughout.
For `COC(=O)C1=C(C(=O)OC)C2(c3ccccc3)OC1(c1ccccc1)c1cc3ccccc3cc12`, the TGI came to 2.77 µM in the experiment on UO-31 renal; 6.06 µM with K-562 leukemia; 3.49 µM with HT29 colon; 3.64 µM in the experiment on MOLT-4 leukemia; 4.19 µM in the experiment with RPMI-8226 leukemia; 4.18 µM in the experiment with COLO 205 colon. Moreover, the values for the TGI in the experiment on OVCAR-4 ovarian, in the experiment on OVCAR-5 ovarian and in the experiment on SF-268 CNS were 3.5 µM, 3.53 µM and 3.77 µM, respectively.
Consider `CC(=O)Nc1ccc(C2CC(c3ccc([N+](=O)[O-])cc3)=Nc3ccccc3S2=O)cc1` (stereo not given), for which the TGI in the experiment on UO-31 renal was 46.5 µM; in the experiment with K-562 leukemia, 23.1 µM; in the experiment on HT29 colon it was 59.1 µM; in the experiment on MOLT-4 leukemia, 32.8 µM; in the experiment on RPMI-8226 leukemia, 20.5 µM; in the experiment with COLO 205 colon it was 44.9 µM. Further, the TGI with OVCAR-4 ovarian was 39.8 µM; in the experiment with OVCAR-5 ovarian it was above 100 µM; with SF-268 CNS, above 100 µM.
With `CCOC(=O)c1ccc(N=Nc2ccc(N(CCC#N)CCC#N)cc2C)cc1`, the TGI in the experiment with UO-31 renal, with K-562 leukemia, in the experiment on HT29 colon, in the experiment on MOLT-4 leukemia, with RPMI-8226 leukemia and with COLO 205 colon was above 100 µM each time. For the same compound, the TGI with OVCAR-4 ovarian and with OVCAR-5 ovarian was above 100 µM each time.
`CC(=O)Oc1c(C(=O)[O-])cc(C(C)C)cc1C(C)C.CC(=O)Oc1c(C(=O)[O-])cc(C(C)C)cc1C(C)C.CC(=O)Oc1c(C(=O)[O-])cc(C(C)C)cc1C(C)C.CC(=O)Oc1c(C(=O)[O-])cc(C(C)C)cc1C(C)C.[Cu+2].[Cu+2]`: the GI50 with UO-31 renal was 50.7 µM; in the experiment with HT29 colon, 37.5 µM; in the experiment on MOLT-4 leukemia it was 74.9 µM; in the experiment with COLO 205 colon, 21 µM; with OVCAR-4 ovarian, 42.9 µM; in the experiment on OVCAR-5 ovarian it was 57.2 µM. Also, the GI50 in the experiment with SF-268 CNS is 38.7 µM. Moreover, the TGI in the experiment with UO-31 renal was above 100 µM; with HT29 colon it was above 100 µM; in the experiment on MOLT-4 leukemia, above 100 µM; with COLO 205 colon, 42.5 µM; in the experiment with OVCAR-4 ovarian, 97.1 µM; in the experiment with OVCAR-5 ovarian it was above 100 µM. In the experiment with SF-268 CNS, the TGI was above 100 µM.
Consider `CC12OC(=O)C(C#N)C1(C)C1C(=O)CCCC12` (stereo not given), for which the TGI with UO-31 renal, with K-562 leukemia, in the experiment on MOLT-4 leukemia, in the experiment on RPMI-8226 leukemia, in the experiment with COLO 205 colon and with OVCAR-4 ovarian was above 100 µM each time. Further, the TGI in the experiment on OVCAR-5 ovarian and in the experiment on SF-268 CNS was above 100 µM throughout.
